Assay results from patent US20140066410A1, “INHIBITORS OF BROMODOMAINS AS MODULATORS OF GENE EXPRESSION” (ICAHN SCHOOL OF MEDICINE AT MOUNT SINAI, priority 2011, published 2014).
Read-outs that look alike come from different tables or passages of the source.

Key:
p53 = assay: p21 luciferase assay (p53 inhibition) in U20S cells upon doxorubicin; type: cell-based; conditions: for % Inhibition (p53 inhibition, p21 luciferase activity) / inhibition at 50 µM: compounds at 50 μM, doxorubicin-treated U20S cells; for Ability to inhibit p53-dependent p21 luciferase activity / p21 expression (SAR, words): compared with lead / ortho-methyl analogs
Description: U20S Cells were transfected with p21 luciferase (1 μg) and renilla luciferase (100 ng) vectors in 6 well plate format using Fugene 6 (Roche). Briefly, total of 1.1 micrograms of vector was incubated with […] of Fugene 6 reagent for 30 min. After 3-4 hours of transfection, cell were treated with compounds for overnight, and then exposed to 300 nanogram of doxorubicin for next 24 hours. In these experiments, DMSO, transfected cells with empty vector and cell without doxorubicin were used as controls. DMSO concentration is maintained at 0.01%. Transfected cells with doxorubicin treatment were used as positive control. The luciferase activity was estimated by following the manufacturer's instruction (Promega) in a luminometer. […] The inhibitory activity (IC50) of a small molecule on p21 luciferase activity was obtained from the average of three biological replicates using PRISM software.

BRD4-1 = BRD4-1 (Homo sapiens, UniProt O60885); assay: Bromodomain binding affinity (tryptophan fluorescence binding assay)
Description: (§1) Monitoring change of intrinsic tryptophan fluorescence of a protein induced by ligand binding can be used to determine ligand binding affinity (KD). This assay was used to assess ligand binding to the CBP BRD and ischemin binding to the BRDs from other transcription proteins as follows. The chemical ligands were prepared at 500-850 μM in the PBS buffer. Their serial dilutions by a factor of 1.5 in a 384-wells black plate were carried out using a Tecan EVO200 liquid handler down to a concentration of 0.5 nM. Protein was added to the compounds to a final concentration in each well of 5 μM. Tryptophan fluorescence of the protein was measured (with excitation set at 280 nm, emission at 350 nm) on a Tecan Safire2 reader. Inner filter correction was introduced to take into account the possible intrinsic fluorescence of the compound. […] KD was calculated based on the curve fitting.

BRD4-2 = BRD4-2 (Homo sapiens, UniProt O60885); assay: as above
Description: as §1

CBP BRD = CBP BRD (Homo sapiens, UniProt Q92793); assay: as above
Chain of CBP BRD (Q92793 1085-1192 limits assumed): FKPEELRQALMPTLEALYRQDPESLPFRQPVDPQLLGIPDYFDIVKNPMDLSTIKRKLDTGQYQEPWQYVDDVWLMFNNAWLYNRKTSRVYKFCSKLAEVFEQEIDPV
Description: as §1

PCAF = molecular target: T1, PCAF (Homo sapiens, UniProt Q92831); assay: as above
T1 sequence (Q92831 723-827 limits assumed): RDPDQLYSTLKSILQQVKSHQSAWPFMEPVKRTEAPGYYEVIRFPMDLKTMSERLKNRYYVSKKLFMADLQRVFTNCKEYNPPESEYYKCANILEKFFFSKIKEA
Description: as §1

melanoma cells = assay: Melanoma cell proliferation in vitro; type: cell-based; conditions: FIG. 6, FIG. 7
U20S cells = assay: BRDU incorporation / cell cycle analysis; type: cell-based; conditions: for Prevention of doxorubicin-induced cell cycle arrest (decrease of BRDU incorporation): compound 50 μM, doxorubicin 5 μM, U20S cells
Description: BRDU incorporation assay for cell cycle evaluation was performed in 96 well plates using calorimetric based kit from Calbiochem (Cat# QiA58). Hundred microliter of 1×10^5/ml cells were plated in DMEM media (Mediatech) with 10% fetal bovine serum (FBS). After 12 hours cells were treated with compounds ischemin and MS 119 (50 μM) with or without doxorubicin treatment (5 μM). The controls were DMSO and untreated cells. BRDU was added for 24 hours treatment. After 24 hours cells were fixed and treated with anti-BRDU antibody. After washings, the wells were incubated with peroxidase. After final wash, the color was developed using TMB as substrate and the reaction was stopped with stop solution and optical density was estimated at 450 nm.
DNA damage induced by doxorubicin leads to p53 stimulated cellular responses including cell cycle arrest, damage repair, and apoptosis. To determine the effect of ischemin on dividing U20S cells, U20S cells were treated with 5-bromo-2-deoxyuridine (BRDU) and the incorporated BRDU during in DNA synthesis was measured using an ELISA assay.

NF-κB = assay: TNFα-induced NF-kB activation, luciferase in NF-kB response element HEK293 cells; type: cell-based; conditions: Homo sapiens; NF-κB-response element stabilized HEK293 cells; read-out: IC50, inhibition of TNFα-induced activation of NF-κB
Description: FIG. 5. […] A. NF-kB activation by TNFa (10 ng/mL). HEK 293 cells ([…]) in a 24-well plate were stabilized with NF-kB response element (NF-kB_RE) was treated with TNF. Twenty-four hours after the treatment, the cells were harvested and lysed, and luciferase activity was determined.
Dysregulation of macrophages and T cell functions trigger inflammatory responses contributing to IBD progression. Given its pro-inflammatory functions, NF-κB inhibition has anti-inflammatory effects, as shown by inhibition of IKK activity, which prevents phoshorylation and release of IκBα from NF-κB.

melanocytes = assay: Proliferation of normal melanocytes; type: cell-based; conditions: in vitro; FIG. 6
[1] = Table 1, read-out: Binding Affinity, Kd BRD4-1
[2] = Table 1, read-out: Binding Affinity, Kd BRD4-2
[3] = Table 4, read-out: BrD4-1 (μM), bromodomain binding
[4] = Table 4, read-out: BrD4-2 (μM), bromodomain binding
[5] = Table 4, read-out: CBP (μM), bromodomain binding
[6] = Table 4, read-out: PCAF (μM), bromodomain binding

5-(4-hydroxy-3,5-isopropyl-phenylazo)-2,4-dimethylbenzenesulfonic acid [MS128]
% Inhibition (p53 inhibition, p21 luciferase activity) (p53): 47.2%

5-(4-hydroxy-3-methyl-5-propene-phenylazo)-2,4-methylbenzenesulfonic acid [MS130]
% Inhibition (p53 inhibition, p21 luciferase activity) (p53): 40.4%

Cc1cc(C#Cc2ccc(S(=O)(=O)Nc3ccccn3)cc2)cc(C)c1O [CM0000254]
Kd (BRD4-1; [1]): < 1 µM
Kd (BRD4-2; [2]): 1.6 µM

Cc1cc(/C=C/c2ccc(S(=O)(=O)Nc3ccccn3)cc2)cc(C)c1O [CM0000255]
Kd (BRD4-1; [1]): < 1 µM
Kd (BRD4-1; [3]): < 1 µM
Kd (BRD4-2; [2]): < 1 µM
Kd (BRD4-2; [4]): < 1 µM
Kd (CBP BRD; Table 1, read-out: Binding Affinity, Kd CBP): 32.8 µM
Kd (CBP BRD; [5]): 33 µM
Kd (PCAF; Table 1, read-out: Binding Affinity, Kd PCAF): < 1 µM
Kd (PCAF; [6]): < 1 µM
Inhibition of melanoma cell proliferation (melanoma cells): capable of inhibiting melanoma cell proliferation

Cc1cc(/C=C/c2ccc(S(=O)(=O)Nc3ccccn3)cc2)c(NC(=O)OC(C)(C)C)cc1O [CM0000278]
Kd (BRD4-1; [1]): 1.5 µM
Kd (BRD4-2; [2]): < 1 µM

Cc1cc(/C=C/c2ccc(S(=O)(=O)Nc3ccccn3)cc2)c(N)cc1O [CM0000279]
Kd (BRD4-1; [1]): 2.1 µM
Kd (BRD4-1; [3]): 2 µM
Kd (BRD4-2; [2]): < 1 µM
Kd (BRD4-2; [4]): < 1 µM
Inhibition of melanoma cell proliferation (melanoma cells): capable of inhibiting melanoma cell proliferation

Cc1cc(O)cc(C)c1/N=N/c1ccc(S(=O)(=O)O)cc1 [MS100, 4-(4-hydroxy-2,6-dimethyl-phenylazo)-benzenesulfonic acid]
inhibition at 50 µM (p53): 36.4%

Cc1cc(/N=N/c2ccc(S(=O)(=O)O)cc2)c(C)cc1O [MS101, 4-(4-hydroxy-2,5-dimethyl-phenylazo)-benzenesulfonic acid]
Ability to inhibit p53-dependent p21 luciferase activity / p21 expression (SAR, words) (p53): marked increase
inhibition at 50 µM (p53): 82.9%

Cc1cc(/N=N/c2ccc(S(=O)(=O)O)cc2)c(C)c(C)c1O [MS103, 4-(4-hydroxy-2,3,5-trimethyl-phenylazo)-benzenesulfonic acid]
inhibition at 50 µM (p53): 38.9%

CC(C)c1cc(N=Nc2ccc(S(=O)(=O)O)cc2)cc(C(C)C)c1O [MS105, 4-(4-hydroxy-3,5-diisopropyl-phenylazo)-benzenesulfonic acid]
Ability to inhibit p53-dependent p21 luciferase activity / p21 expression (SAR, words) (p53): reduced activity
inhibition at 50 µM (p53): 26.4%

Cc1cc(C)c(S(=O)(=O)O)cc1/N=N/c1cc(C)c(O)c(C)c1 [MS109, 5-(3,5-dimethyl-4-hydroxyphenylazo)-2,4-dimethylbenzenesulfonic acid]
inhibition at 50 µM (p53): 60.1%

Cc1cc(N=Nc2ccc(S(=O)(=O)O)cc2)cc(C(C)(C)C)c1O [MS111, 4-(4-hydroxy-3-t-butyl-5-methyl-phenylazo)-benzenesulfonic acid]
Ability to inhibit p53-dependent p21 luciferase activity / p21 expression (SAR, words) (p53): reduced activity
inhibition at 50 µM (p53): 22.8%

CCc1cc(/N=N/c2ccc(S(=O)(=O)O)cc2)ccc1O [MS113, 4-(4-hydroxy-3-ethyl-phenylazo)-benzenesulfonic acid]
Ability to inhibit p53-dependent p21 luciferase activity / p21 expression (SAR, words) (p53): reduced activity
inhibition at 50 µM (p53): 25.7%

Cc1cc(/N=N/c2cc(S(=O)(=O)O)c(C)cc2C)c(C)cc1O [MS118]
inhibition at 50 µM (p53): 49.7%

Cc1cc(C)c(S(=O)(=O)O)cc1/N=N/c1c(C)cc(O)cc1C [MS119, 5-(2,6-dimethyl-4-hydroxyphenylazo)-2,4-dimethylbenzenesulfonic acid]
Inhibition of p21 luciferase activity (p53; U20S cells, FIG. 1A): Dose-dependent inhibition
inhibition at 50 µM (p53): 54%
Prevention of doxorubicin-induced cell cycle arrest (decrease of BRDU incorporation) (U20S cells): prevents a doxorubicin-induced decrease of BRDU incorporation
Prevention of doxorubicin-induced cell cycle arrest (decrease of BRDU incorporation) (U20S cells; listed as MS 119): almost completely prevented

CCc1cc(/N=N/c2cc(S(=O)(=O)O)c(C)cc2C)ccc1O [MS124, 5-(3-ethyl-4-hydroxyphenylazo)-2,4-dimethylbenzenesulfonic acid]
inhibition at 50 µM (p53): 25%

CCCc1cc(N=Nc2cc(S(=O)(=O)O)c(C)cc2C)ccc1O [MS126, 5-(4-hydroxy-3-propyl-phenylazo)-2,4-dimethylbenzenesulfonic acid]
inhibition at 50 µM (p53): 93.5%

CCC(=O)c1cc(N=Nc2cc(S(=O)(=O)O)c(C)cc2C)ccc1O [MS127, 5-(4-hydroxyphenylazo-3-(1-propanone))-2,4-dimethylbenzenesulfonic acid]
% Inhibition (p53 inhibition, p21 luciferase activity) (p53): 86.8%

Cc1cc(C)c(S(=O)(=O)O)cc1N=Nc1cc(C)c(O)c(C(C)C)c1 [MS129, 5-(4-hydroxy-3-isopropyl-5-methyl-phenylazo)-2,4-dimethylbenzenesulfonic acid]
inhibition at 50 µM (p53): 44.6%

Cc1cc(C)c(S(=O)(=O)O)cc1/N=N/c1ccc(O)c(Cl)c1 [MS131, 5-(3-chloro-4-hydroxyphenylazo)-2,4-dimethylbenzenesulfonic acid]
inhibition at 50 µM (p53): 49.7%

Cc1cc(O)c(N)cc1/N=N/c1cc(S(=O)(=O)O)c(C)cc1C [MS135]
inhibition at 50 µM (p53): 54.8%

Cc1cc(C)c(S(=O)(=O)O)cc1/N=N/c1cc(C)c(O)c(C)c1C [MS146, 5-(2,3,5-trimethyl-4-hydroxyphenylazo)-2,4-dimethylbenzenesulfonic acid]
inhibition at 50 µM (p53): 30.8%

Cc1cc(O)cc(C)c1/N=N/c1cc(Cl)c(O)c(S(=O)(=O)O)c1 [MS153]
inhibition at 50 µM (p53): 39%

Cc1cc(/N=N/c2ccc(S(=O)(=O)O)cc2)ccc1O [MS450]
Ability to inhibit p53-dependent p21 luciferase activity / p21 expression (SAR, words) (p53): marked increase
inhibition at 50 µM (p53): 85.6%

Cc1cc(/N=N/c2ccc(S(=O)(=O)O)cc2)cc(C)c1O [MS451]
Ability to inhibit p53-dependent p21 luciferase activity / p21 expression (SAR, words) (p53): marked increase
inhibition at 50 µM (p53): 87.4%

Cc1cc(NNc2ccc(S(=O)(=O)NCc3ccc(C(F)(F)F)cc3)cc2)c(N)cc1O [MS0129433]
Kd (BRD4-1; Table 5, read-out: BrD4-1): 4.5 µM
Kd (BRD4-2; Table 5, read-out: BrD4-2): 21 µM
Kd (CBP BRD; Table 5, read-out: CBP): > 100 µM
Kd (PCAF; Table 5, read-out: PCAF): > 100 µM
IC50 (NF-κB): 0.057 µM

Cc1cc(/N=N/c2ccc(S(=O)(=O)Nc3ccccn3)cc2)cc(C)c1O [MS0129435]
Kd (BRD4-1; [3]): 1.3 µM
Kd (BRD4-2; [4]): 2.4 µM
Kd (CBP BRD; [5]): > 100 µM
Kd (PCAF; [6]): 4.5 µM

Cc1cc(/N=N/c2ccc(S(=O)(=O)Nc3ccccn3)cc2)c(N)cc1O [MS0129436]
Kd (CBP BRD; [5]): 14 µM
Kd (CBP BRD; Table 5, read-out: CBP): 14 µM
Kd (PCAF; [6]): 6.8 µM
Kd (PCAF; Table 5, read-out: PCAF): 8.6 µM
IC50 (NF-κB): 0.057 µM
Inhibition of melanoma cell proliferation (melanoma cells): inhibits proliferation
Effect on normal melanocytes (melanocytes): no effect

O=C(O)c1cc(/N=N/c2ccc(S(=O)(=O)Nc3ccccn3)cc2)ccc1O [Sulfasalazine (MS0123028), Sulfasalazine, reference compound]
Kd (BRD4-1; [3]): 54 µM
Kd (BRD4-1; Table 5, read-out: BrD4-1): 54 µM
Kd (BRD4-2; [4]): 54 µM
Kd (CBP BRD; [5]): 82 µM
Kd (CBP BRD; Table 5, read-out: CBP): 82 µM
Kd (PCAF; [6]): 88 µM
Kd (PCAF; Table 5, read-out: PCAF): 88 µM
IC50 (NF-κB): 0.22 µM

COc1cccc2c1C(=O)c1c(O)c3c(c(O)c1C2=O)C[C@@](O)(C(=O)CO)C[C@@H]3O[C@H]1C[C@H](N)[C@H](O)[C@H](C)O1 [doxorubicin, reference compound]
Decrease of BRDU incorporation (U20S cells; doxorubicin treatment of U20S cells): 45%
